# Experimental data: the supplement of paper PMC11061612
# How the values were obtained:
# [1] = system: KYSE-520 (Esophageal Squamous Cell Carcinoma); assay: combination Emax (second highest fraction inhibited in the dose matrix, 72 h); higher = more inhibition; extreme values may be limits of the assay
# How it was run: (§1)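 Cell lines in DMEM/F12 or RPMI with 10% FBS were plated in 1536-well plates, held 24 hours at 37°C, 5% CO2, then given two-drug dose matrices for 72 hours (DMSO typically 0.2%). Viability was read by CellTiter-Glo 2.0 luminescence and scaled as inhibition from 0 (vehicle wells) to 1 (blank wells). Combination Emax is the second-highest inhibition in the matrix; Bliss excess is observed combination effect minus expected EA + EB − EA·EB, EA and EB being single-agent effects.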
# [2] = system: LU-135 (Small Cell Lung Carcinoma); assay: as above
# How it was run: as §1
# [3] = system: LNCaP-Clone-FGC (Prostate Carcinoma); assay: as above
# How it was run: as §1
# [4] = system: HT-1376 (Bladder Carcinoma); assay: as above
# How it was run: as §1
# [5] = system: ME-1 (Acute Myeloid Leukemia); assay: as above
# How it was run: as §1
# [6] = system: LB831-BLC (Bladder Carcinoma); assay: as above
# How it was run: as §1
# [7] = system: HuP-T4 (Pancreatic Carcinoma); assay: as above
# How it was run: as §1
# AGS (Gastric Carcinoma) = assay: as above
# How it was run: as §1
# [8] = system: HO-1-N-1 (Oral Cavity Carcinoma); assay: as above
# How it was run: as §1
# [9] = system: OVCA420 (Ovarian Carcinoma); assay: as above
# How it was run: as §1
# [10] = system: NCI-H2085 (Non-Small Cell Lung Carcinoma); assay: as above
# How it was run: as §1
# HOS (Osteosarcoma) [11] = assay: as above
# How it was run: as §1
# 42-MG-BA (Glioblastoma) = assay: as above
# How it was run: as §1
# KELLY (Neuroblastoma) = assay: as above
# How it was run: as §1
# NOS-1 (Osteosarcoma) = assay: Bliss excess, mean over the matrix (fraction); higher = more synergy
# How it was run: as §1
# [12] = system: RC-K8 (B-Cell Non-Hodgkin's Lymphoma); assay: as above
# How it was run: as §1
# [13] = system: RO82-W-1 (Thyroid Gland Carcinoma); assay: as above
# How it was run: as §1
# [14] = system: CCRF-CEM (T-Lymphoblastic Leukemia); assay: as above
# How it was run: as §1
# [15] = system: NCI-H2085 (Non-Small Cell Lung Carcinoma); assay: as above
# How it was run: as §1
# HOS (Osteosarcoma) [16] = assay: as above
# How it was run: as §1
# 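Wherever Bliss excess, mean over the matrix is given: after 72 h of two-drug dosing.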
Compound,combination Emax [1],combination Emax [2],combination Emax [3],combination Emax [4],combination Emax [5],combination Emax [6],combination Emax [7],combination Emax (AGS (Gastric Carcinoma)),combination Emax [8],combination Emax [9],combination Emax [10],combination Emax (HOS (Osteosarcoma) [11]),combination Emax (42-MG-BA (Glioblastoma)),combination Emax (KELLY (Neuroblastoma)),Bliss excess (NOS-1 (Osteosarcoma)),Bliss excess [12],Bliss excess [13],Bliss excess [14],Bliss excess [15],Bliss excess (HOS (Osteosarcoma) [16])
"CC1(C)CCC(CN2CCN(c3ccc(C(=O)NS(=O)(=O)c4ccc(NCC5CCOCC5)c([N+](=O)[O-])c4)c(Oc4cnc5[nH]ccc5c4)c3)CC2)=C(c2ccc(Cl)cc2)C1 [Venetoclax] + CCN(CCO)CCCOc1ccc2c(Nc3cc(CC(=O)Nc4cccc(F)c4)[nH]n3)ncnc2c1 [AZD2811] (first compound max 1 µM, 7x7, partner max 1 µM)",0.304,0.899,0.272,0.183,1,0.188,0.263,0.346,0.687,0.188,0.46,0.214,0.534,0.985,-0.0156,0.0214,-0.0604,-0.0322,-0.0189,-0.0102
"Cc1c2c(nn1C)CSCc1cc(n(C)n1)CSc1cc(c3ccccc3c1)OCCCc1c(C(=O)O)n(C)c3c-2c(Cl)ccc13 [AZD5991] + C[C@@H]1COCCN1C2=NC(=NC(=C2)C3(CC3)[S@](=N)(=O)C)C4=C5C=CNC5=NC=C4 [AZD6738] (first compound max 1 µM, 7x7, partner max 10 µM)",0.583,0.736,0.688,0.455,0.798,0.439,0.51,0.821,0.928,0.494,0.52,0.789,1,0.991,0.0854,0.0114,-0.0303,0.0397,0.0312,0.0356
"Cc1c2c(nn1C)CSCc1cc(n(C)n1)CSc1cc(c3ccccc3c1)OCCCc1c(C(=O)O)n(C)c3c-2c(Cl)ccc13 [AZD5991] + Cc1cc2ncnn2cc1Nc1ncc2c(n1)n(C1CCOCC1)c(=O)n2C [AZD7648] (first compound max 1 µM, 7x7, partner max 10 µM)",0.365,0.279,0.42,0.221,0.755,0.251,0.325,0.233,0.794,0.201,0.244,0.287,0.988,0.768,0.0112,0.0148,-0.0503,0.0837,-0.0493,-0.0036
"CS(=O)(=O)CCNCc1ccc(-c2ccc3ncnc(Nc4ccc(OCc5cccc(F)c5)c(Cl)c4)c3c2)o1 [Lapatinib] + C[C@@H](Oc1cc(-c2cnn(C3CCNCC3)c2)cnc1N)c1c(Cl)ccc(F)c1Cl [Crizotinib] (first compound max 10 µM, 7x7, partner max 10 µM)",0.945,0.94,0.804,0.255,0.194,0.826,0.915,0.976,0.979,0.964,0.673,0.408,0.767,0.97,-0.0114,-0.0433,-0.0392,-0.0185,-0.0813,0.0138
"COc1nnc2ccc(N3CCC(c4ccc(OCCN5CCN(C)C(=O)[C@H]5C)cc4)CC3)nn12 [AZD5153] + C[C@@H]1COCCN1C2=NC(=NC(=C2)C3(CC3)[S@](=N)(=O)C)C4=C5C=CNC5=NC=C4 [AZD6738] (first compound max 1 µM, 7x7, partner max 10 µM)",0.681,1,0.791,0.481,0.651,0.648,0.626,0.959,0.795,0.807,0.653,0.704,0.793,0.983,0.0006,-0.0424,0.0259,-0.0178,0.0107,-0.0413
"Cn1cnc2c(F)c(Nc3ccc(Br)cc3Cl)c(C(=O)NOCCO)cc21 [Selumetinib] + CC(C)n1c(=O)n(C)c2cnc3cc(F)c(-c4ccc(OCCCN5CCCCC5)nc4)cc3c21 [AZD1390] (first compound max 10 µM, 7x7, partner max 0.3 µM)",0.382,0.136,0.0956,0.157,0.434,0.214,0.293,0.842,0.506,0.436,0.191,0.11,0.185,0.22,0.0117,-0.0253,-0.034,-0.0131,-0.06,-0.0404
